The source made the active and inactive calls. No cut-off for these calls is given here.
How the values were obtained:
[1] = molecular target: T1, Indoleamine 2,3-dioxygenase 1 (Homo sapiens, UniProt P14902); experiment: (§1) Inhibition of N-terminal hexa-histidine tagged human IDO1 (12 to 403 residues) expressed in Escherichia coli Transetta (DE3) using L-tryptophan as substrate at 100 uM preincubated with enzyme for 10 mins followed by substrate addition and measured after 30 to 60 mins by microplate reader analysis relative to control; details: time 40-70 min
Target sequence in this assay (P14902 whole entry, looked up, the tested form may be a part): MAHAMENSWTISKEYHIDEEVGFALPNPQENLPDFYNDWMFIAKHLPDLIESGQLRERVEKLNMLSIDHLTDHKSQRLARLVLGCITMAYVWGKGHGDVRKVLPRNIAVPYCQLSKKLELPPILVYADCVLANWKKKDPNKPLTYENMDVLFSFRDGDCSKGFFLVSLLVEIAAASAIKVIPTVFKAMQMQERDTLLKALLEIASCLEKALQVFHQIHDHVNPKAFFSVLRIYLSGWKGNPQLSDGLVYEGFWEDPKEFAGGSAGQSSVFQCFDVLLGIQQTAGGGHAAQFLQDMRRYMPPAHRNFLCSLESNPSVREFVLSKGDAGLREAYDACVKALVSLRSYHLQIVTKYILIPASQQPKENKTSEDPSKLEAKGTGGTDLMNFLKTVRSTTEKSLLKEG

[2] = molecular target: T2, Tryptophan 2,3-dioxygenase (Homo sapiens, UniProt P48775); experiment: as §1, with “TDO (19” for “IDO1 (12”, “388” for “403”, “10” for “100”; details: time 40-70 min
Target sequence in this assay (P48775 whole entry, looked up): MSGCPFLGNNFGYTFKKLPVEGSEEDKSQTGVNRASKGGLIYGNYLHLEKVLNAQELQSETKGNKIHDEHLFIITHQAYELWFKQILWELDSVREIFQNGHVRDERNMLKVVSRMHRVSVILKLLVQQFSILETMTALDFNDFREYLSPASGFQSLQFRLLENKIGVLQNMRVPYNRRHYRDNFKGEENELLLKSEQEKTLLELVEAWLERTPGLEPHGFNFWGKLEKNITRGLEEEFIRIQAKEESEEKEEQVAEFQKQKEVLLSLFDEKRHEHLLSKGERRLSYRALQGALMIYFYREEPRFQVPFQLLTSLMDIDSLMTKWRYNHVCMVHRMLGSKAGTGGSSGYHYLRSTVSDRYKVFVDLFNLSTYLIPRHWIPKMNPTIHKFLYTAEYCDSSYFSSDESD

CT26 [3] = experiment: Antitumor activity against mouse CT26 cells implanted in BALB/c mouse assessed as reduction in tumor weight at 50 mg/kg, IG administered every one day for 9 days and measured every 3 days by vernier caliper analysis; format: functional, organism-based; details: time 9.0 day
[4] = Toxicity in BALB/c mouse implanted with mouse CT26 cells assessed as reduction in body weight at 50 mg/kg, IG administered every one day for 9 days and measured every 3 days; format: organism-based; details: in vivo, po, 216 h, time 9 day
HepG2 = experiment: Cytotoxicity against human HepG2 cells assessed as inhibition of cell growth incubated for 24 hrs by MTT assay; format: functional, cell-based; details: HepG2, 24 h
[5] = molecular target: T1, Indoleamine 2,3-dioxygenase 1; experiment: Inhibition of N-terminal hexa-histidine tagged human IDO1 (12 to 403 residues) expressed in Escherichia coli Transetta (DE3) using L-tryptophan as substrate preincubated with enzyme for 10 mins followed by substrate addition and measured after 30 to 60 mins by microplate reader analysis
Target sequence in this assay (P14902 whole entry, the tested form may be a part): as the sequence (P14902 whole entry, looked up, the tested form may be a part) above

CT26 [6] = experiment: Antitumor activity against mouse CT26 cells implanted in BALB/c mouse assessed as inhibition of tumor volume at 50 mg/kg, IG administered every one day for 9 days and measured every 3 days by vernier caliper analysis relative to control; format: functional; details: CT26, po, 216 h, time 9 day
CT26 [7] = experiment: Antitumor activity against mouse CT26 cells implanted in BALB/c mouse assessed as reduction in tumor volume at 50 mg/kg, IG administered every one day for 9 days and measured every 3 days by vernier caliper analysis relative to control; format: functional, organism-based; details: time 9.0 day
Jurkat = experiment: Cytotoxicity against human Jurkat cells assessed as inhibition of cell growth incubated for 24 hrs by MTT assay; format: functional, cell-based
H22 = experiment: Cytotoxicity against mouse H22 cells assessed as inhibition of cell growth incubated for 24 hrs by MTT assay; format: functional, cell-based; details: H22, 24 h
B16 = experiment: Cytotoxicity against mouse B16 cells assessed as inhibition of cell growth incubated for 24 hrs by MTT assay; format: functional, cell-based; details: B16, 24 h
[8] = molecular target: T1, Indoleamine 2,3-dioxygenase 1; experiment: as §1, with “10” for “100”; details: time 40-70 min
Target sequence in this assay (P14902 whole entry, looked up, the tested form may be a part): as above

[9] = molecular target: T2, Tryptophan 2,3-dioxygenase; experiment: (§2) Inhibition of N-terminal hexa-histidine tagged human TDO (19 to 388 residues) expressed in Escherichia coli Transetta (DE3) using L-tryptophan as substrate preincubated with enzyme for 10 mins followed by substrate addition and measured after 30 to 60 mins by microplate reader analysis
Target sequence in this assay (P48775 whole entry): as the sequence (P48775 whole entry, looked up) above

MOLM-13 = experiment: Cytotoxicity against human MOLM-13 cells assessed as inhibition of cell growth incubated for 24 hrs by MTT assay; format: functional, cell-based; details: MOLM-13, 24 h
[10] = Cytotoxicity against […] cells assessed as inhibition of cell growth incubated for 24 hrs by MTT assay; format: functional, cell-based; details: Mus musculus, Hepa1-6, 24 h
[11] = molecular target: T2, Tryptophan 2,3-dioxygenase; experiment: as §2, with “as substrate at 100 uM preincubated with” for “as substrate preincubated with”, “reader analysis relative to control” for “reader analysis”; details: time 40-70 min
Target sequence in this assay (P48775 whole entry, looked up): as above

[12] = molecular target: T2, Tryptophan 2,3-dioxygenase; experiment: Inhibition of TDO in HEK293-A cells transfected with pCMV-TDO2; format: cell-based
Target sequence in this assay (P48775 whole entry): as the sequence (P48775 whole entry, looked up) above

CT26 [13] = experiment: Antitumor activity against mouse CT26 cells implanted in BALB/c mouse assessed as reduction in tumor volume at 12.5 to 50 mg/kg, IG administered every one day for 9 days and measured every 3 days by vernier caliper analysis; format: functional, organism-based; details: dose 12.5-50 mg/kg, time 9.0 day
[14] = Toxicity in BALB/c mouse implanted with mouse CT26 cells assessed as reduction in body weight at 12.5 to 50 mg/kg, IG administered every one day for 9 days and measured every 3 days; format: organism-based; details: in vivo, po, 216 h, dose 12.5-50 mg/kg, time 9 day
CT26 [15] = experiment: Downregulation of Foxp3 expression in tumor of BALB/c mouse implanted with mouse CT26 cells at 12.5 to 50 mg/kg, IG administered every one day for 9 days by Hematoxylin staining based immunohistochemistry analysis; format: functional, organism-based; details: dose 12.5-50 mg/kg, time 9.0 day
CT26 [16] = experiment: Upregulation of CD8 expression in tumor of BALB/c mouse implanted with mouse CT26 cells at 12.5 to 50 mg/kg, IG administered every one day for 9 days by Hematoxylin staining based immunohistochemistry analysis; format: functional, organism-based; details: dose 12.5-50 mg/kg, time 9.0 day
CT26 [17] = experiment: Downregulation of TNF-alpha expression in tumor of BALB/c mouse implanted with mouse CT26 cells at 12.5 to 50 mg/kg, IG administered every one day for 9 days by Hematoxylin staining based immunohistochemistry analysis; format: functional, organism-based; details: dose 12.5-50 mg/kg, time 9.0 day
CT26 [18] = experiment: Antitumor activity against mouse CT26 cells implanted in BALB/c mouse assessed as reduction in tumor weight at 12.5 to 50 mg/kg, IG administered every one day for 9 days and measured every 3 days by vernier caliper analysis; format: functional, organism-based; details: dose 12.5-50 mg/kg, time 9.0 day
CT26 [19] = experiment: Antitumor activity against mouse CT26 cells implanted in BALB/c mouse assessed as inhibition of tumor volume at 25 mg/kg, IG administered every one day for 9 days and measured every 3 days by vernier caliper analysis relative to control; format: functional; details: CT26, po, 216 h, time 9 day
HEK293 = experiment: Cytotoxicity against HEK293 cells assessed as inhibition of cell growth at <10 uM incubated for 24 hrs by MTT assay; format: toxicity, cell-based; details: human, hek293, 24 h

For `O=[N+]([O-])c1ccc(O)cc1CNc1cc(Br)cc2[nH]ncc12`, which inhibition [1] is on record?
The inhibition was 98%.

What about the inhibition [2] of the same molecule?
The inhibition was 96%.

What about the Activity (CT26 [3]) of the same molecule?
The Activity was “Active”.

What about the Activity [4] of the same molecule?
The Activity was “Non-Toxic”.

And the IC50 (HepG2)?
Its IC50 is over 20 µM.

What about the IC50 [5] of the same molecule?
The IC50 was 0.91 µM.

And the inhibition in vivo at 50 mg/kg (CT26 [6])?
The inhibition in vivo at 50 mg/kg was 60.5%.

What about the Activity (CT26 [7]) of the same molecule?
Its Activity is “Active”.

What about the IC50 (Jurkat) of the same molecule?
Its IC50 is over 20 µM.

And the IC50 (H22)?
Its IC50 is over 20 µM.

And the IC50 (B16)?
The IC50 was over 20 µM.

What about the inhibition [8] of the same molecule?
Its inhibition is 92%.

And the IC50 [9]?
The IC50 was 0.46 µM.

And the IC50 (MOLM-13)?
Its IC50 is over 20 µM.

And the IC50 [10]?
The IC50 was over 20 µM.

And the inhibition [11]?
The inhibition was 99%.

For `Cc1ccc(CNc2cc(C(F)(F)F)cc3[nH]ncc23)c([N+](=O)O)c1`, which inhibition [1] is on record?
Its inhibition is 62%.

What about the IC50 [12] of the same molecule?
The IC50 was 0.06 µM.

What about the Activity (CT26 [13]) of the same molecule?
Its Activity is “Active”.

What about the Activity [14] of the same molecule?
Its Activity is “Non-Toxic”.

What about the inhibition [2] of the same molecule?
Its inhibition is 90%.

What about the Activity (CT26 [15]) of the same molecule?
Its Activity is “Active”.

What about the IC50 (HepG2) of the same molecule?
The IC50 was 0.54 µM.

What about the IC50 [5] of the same molecule?
The IC50 was over 100 µM.

And the Activity (CT26 [16])?
Its Activity is “Active”.

What about the IC50 (Jurkat) of the same molecule?
Its IC50 is 7.25 µM.

And the IC50 (H22)?
The IC50 was 1.34 µM.

What about the IC50 (B16) of the same molecule?
The IC50 was 37.4 µM.

What about the inhibition [8] of the same molecule?
The inhibition was 36%.

And the IC50 [9]?
The IC50 was 0.62 µM.

And the IC50 (MOLM-13)?
Its IC50 is 3.43 µM.

What about the Activity (CT26 [17]) of the same molecule?
Its Activity is “Active”.

What about the Activity (CT26 [18]) of the same molecule?
Its Activity is “Active”.

What about the IC50 [10] of the same molecule?
Its IC50 is 5.08 µM.

And the inhibition in vivo at 25 mg/kg (CT26 [19])?
Its inhibition in vivo at 25 mg/kg is 76.9%.

And the Activity (HEK293)?
Its Activity is “Non-Toxic”.

And the inhibition [11]?
Its inhibition is 92%.

Reference: ChEMBL document CHEMBL5108015, “4,6-Disubstituted-1H-Indazole-4-Amine derivatives with immune-chemotherapy effect and in vivo antitumor activity” (Eur J Med Chem, 2022)
